Experimental data as given in US20250109165A1, “CYCLOPHILIN INHIBITORS AND USES THEREOF” (The Broad Institute, Inc., priority 2022, published 2025).

Assays:
CypA E81S/K82R = target: T1, CypA E81S/K82R (Homo sapiens, UniProt P62937, E81S/K82R); assay: Chymotrypsin coupled prolyl-isomerase assay; format: biochemical; settings: CypA E81S/K82R gatekeeper mutant; read-out: IC50^CypAE81S/K82R
T1 construct: Lane 12-SNA-CypA E81S/K82R (1-165); His6 tag (N, cleaved yes); made in house; host or cells: E. coli BL21(DE3)
Protocol: (§1) IC50 values were calculated to be the value at which 50% inhibition was achieved on each compound's non-linear regression fitted curve.

CypD S123E = target: T2, CypD S123E (Homo sapiens, UniProt P30405, S123E); assay: Chymotrypsin coupled prolyl-isomerase assay; format: biochemical; settings: CypD S123E gatekeeper mutant; read-out: IC50^CypDS123E
T2 construct: made in house; host or cells: E. coli BL21(DE3)
Protocol: as §1

CypB = target: T3, CypB (Homo sapiens, UniProt P23284); assay: Chymotrypsin coupled prolyl-isomerase assay; format: biochemical; settings: wild-type CypB
T3 construct: PPIB (UniProtKB Entry P23284: res 34-216); His6 tag with TEV site (seen as […]- and […]- forms) (N); made in house; host or cells: E. coli BL21(DE3)
Protocol: as §1

CypD K118A = target: T4, CypD K118A (Homo sapiens, UniProt P30405, K118A); assay: Chymotrypsin coupled prolyl-isomerase assay; format: biochemical; settings: CypD K118A mutant; read-out: IC50^CypDK118A
T4 construct: made in house; host or cells: E. coli BL21(DE3)
Protocol: as §1

CypD K118E = target: T5, CypD K118E (Homo sapiens, UniProt P30405, K118E); assay: Chymotrypsin coupled prolyl-isomerase assay; format: biochemical; settings: CypD K118E mutant; read-out: IC50^CypDK118E
T5 construct: made in house; host or cells: E. coli BL21(DE3)
Protocol: as §1

CypA = target: T6, CypA (Homo sapiens, UniProt P62937); assay: Chymotrypsin coupled prolyl-isomerase assay; format: biochemical; settings: wild-type CypA
T6 construct: PPIA (UniProtKB Entry P62937: res 1-165); made in house; host or cells: E. coli BL21(DE3)
Protocol: as §1

CypB E121S = target: T7, CypB E121S (Homo sapiens, UniProt P23284, E121S); assay: Chymotrypsin coupled prolyl-isomerase assay; format: biochemical; settings: CypB E121S gatekeeper mutant; read-out: IC50^CypBE121S
T7 construct: Lane 14-SNA-CypB E121S (34-216); His6 tag (N, cleaved yes); made in house; host or cells: E. coli BL21(DE3)
Protocol: as §1

CypD [1] = target: T8, CypD (Homo sapiens, UniProt P30405); assay: Chymotrypsin coupled prolyl-isomerase assay; format: biochemical; settings: wild-type CypD
T8 construct: PPIF (UniProtKB Entry P30405: res 45-207); made in house; host or cells: E. coli BL21(DE3)
Protocol: as §1

CypD [2] = assay: Chymotrypsin coupled prolyl-isomerase assay; format: biochemical, human; settings: CypD versus wild-type CypA
Protocol: as §1

cyclophilins = assay: Prolyl-isomerase inhibition screen on cyclophilins and cyclophilin mutants; format: biochemical, human; settings: for potency on cyclophilin mutants compared to wild-type (in words): mutants as named at the place
Protocol: as §1

T7 sequence (P23284 34-216 E121S): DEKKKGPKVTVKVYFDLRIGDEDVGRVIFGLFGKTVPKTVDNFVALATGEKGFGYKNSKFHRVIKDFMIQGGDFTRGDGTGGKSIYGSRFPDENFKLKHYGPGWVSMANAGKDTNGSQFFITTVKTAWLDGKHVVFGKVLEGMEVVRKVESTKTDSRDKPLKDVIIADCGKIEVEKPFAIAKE
T5 sequence (P30405 45-207 K118E): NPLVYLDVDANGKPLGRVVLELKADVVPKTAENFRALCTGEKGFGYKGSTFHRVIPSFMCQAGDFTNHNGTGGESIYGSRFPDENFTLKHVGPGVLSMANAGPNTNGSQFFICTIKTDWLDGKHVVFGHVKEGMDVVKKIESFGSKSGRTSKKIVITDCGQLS
T6 sequence (P62937 whole entry): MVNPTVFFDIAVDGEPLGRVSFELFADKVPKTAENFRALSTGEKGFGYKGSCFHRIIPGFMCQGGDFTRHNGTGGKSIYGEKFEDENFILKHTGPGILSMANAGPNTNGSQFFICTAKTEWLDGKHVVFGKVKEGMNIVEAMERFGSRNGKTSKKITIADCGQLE
T4 sequence (P30405 45-207 K118A): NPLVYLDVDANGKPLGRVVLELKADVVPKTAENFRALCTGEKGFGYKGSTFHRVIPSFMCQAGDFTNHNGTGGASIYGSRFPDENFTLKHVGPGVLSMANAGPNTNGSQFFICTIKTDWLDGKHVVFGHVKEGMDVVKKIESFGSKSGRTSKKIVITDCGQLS
T2 sequence (P30405 45-207 S123E): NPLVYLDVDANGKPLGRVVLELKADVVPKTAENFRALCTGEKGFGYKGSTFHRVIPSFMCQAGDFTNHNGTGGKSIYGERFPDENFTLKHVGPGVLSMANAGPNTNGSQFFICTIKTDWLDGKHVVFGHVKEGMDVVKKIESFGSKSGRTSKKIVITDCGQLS
T8 sequence (P30405 45-207): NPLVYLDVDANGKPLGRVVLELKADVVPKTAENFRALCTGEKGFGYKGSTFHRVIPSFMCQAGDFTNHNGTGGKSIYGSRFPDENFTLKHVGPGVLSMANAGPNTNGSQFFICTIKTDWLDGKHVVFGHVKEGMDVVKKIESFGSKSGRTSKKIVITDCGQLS
T3 sequence (P23284 34-216): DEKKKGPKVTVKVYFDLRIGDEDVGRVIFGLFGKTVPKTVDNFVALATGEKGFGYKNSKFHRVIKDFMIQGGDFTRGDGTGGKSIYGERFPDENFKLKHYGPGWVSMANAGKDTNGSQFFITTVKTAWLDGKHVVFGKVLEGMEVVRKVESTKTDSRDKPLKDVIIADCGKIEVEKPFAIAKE
T1 sequence (P62937 whole entry E81S/K82R): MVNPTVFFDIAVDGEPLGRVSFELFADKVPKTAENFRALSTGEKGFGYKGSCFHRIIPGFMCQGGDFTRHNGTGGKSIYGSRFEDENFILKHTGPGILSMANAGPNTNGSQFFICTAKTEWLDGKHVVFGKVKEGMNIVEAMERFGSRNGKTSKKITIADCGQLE

Row | Structure (SMILES) | IC50 (CypA E81S/K82R) | IC50 (CypD S123E) | IC50 (CypB) | IC50 (CypD K118A) | IC50 (CypD K118E) | IC50 (CypA) | IC50 (CypB E121S) | IC50 (CypD [1]) | selectivity for CypD over CypA (CypD [2]) | cyclophilin selectivity profile (in words) (cyclophilins) | potency on cyclophilin mutants compared to wild-type (in words) (cyclophilins)
1 | NCCOCCNC(=O)[C@@H]1CCNC(=O)/C=C/C(=O)N2CCC[C@](Cc3ccccc3)(C2)C(=O)N[C@@H](Cc2ccc(-c3ccc(CC(C(=O)O)C(=O)O)cc3)cc2)C(=O)NCc2ccccc2CC(=O)N1 [Compound B52] | 27 nM | 240 nM | 210 nM | 73 nM | 300 nM | 1100 nM | 8 nM | 10 nM | 100 fold | high potency and selectivity for CypD | little to no ablation of potency
2 | NCCOCCNC(=O)[C@@H]1CCNC(=O)/C=C/C(=O)N2CCC[C@](Cc3ccccc3)(C2)C(=O)N[C@@H](Cc2ccc(-c3ccc(C(CC(=O)O)CC(=O)O)cc3)cc2)C(=O)NCc2ccccc2CC(=O)N1 [Compound B53] | 180 nM | 800 nM | 1100 nM | 900 nM | 4000 nM | 3400 nM | 50 nM | 57 nM | 100 fold | high potency and selectivity for CypD | little to no ablation of potency
